Assays:
[1] = Example 8: 22-week randomized, double-blind, placebo-controlled study (PVR, 6MWD, plasma levels, adverse events); type: in vivo, human
Experimental: A 22-week randomized, double-blind, placebo-controlled study with a dose titration period of up to 9 weeks was conducted. Sixty-one patients were randomized 2:1 Compound 1 to placebo. Right Heart Catheterization (RHC) measurements were obtained prior to study Day 1 of the dose titration period and at Week 22. The following values were obtained and recorded: pulmonary artery pressure (PAP) (systolic, diastolic, and mean), heart rate (HR), right atrial pressure (RAP), pulmonary capillary wedge pressure (PCWP) right ventricular pressure (RVP) and cardiac output (CO), pulmonary vascular resistance (PVR), arterial and mixed venous oxygen saturation […] (if applicable). Systemic vascular resistance (SVR) was estimated from blood pressure measurements. The 6-minute walk test (6MWD) was conducted according to the modified guidelines issued by the American Thoracic Society. See Am J Respir Crit Care Med 166:111-117, 2002.
Primary efficacy endpoints for the study were: a) change from baseline in PVR after 22 weeks of treatment, and b) change from baseline in 6 MWD after 22 weeks of treatment.
Compound 1 was administered as a capsule in 0.01, 0.02, 0.03, 0.04, and 0.10 mg dose strengths. The formulation was supplied as a liquid-filled, size 4, hard-gelatin capsule containing Compound 1, polyoxyl 40 hydrogenated castor oil (Kolliphor® RH40) NF, butylated hydroxytoluene (BHT)NF, and colloidal silicon dioxide NF.
The starting dose of Compound 1 was 0.01 mg twice daily. The dose of Compound 1 was titrated according to patient tolerability. If the initial dose was tolerated (0.01 mg twice daily), then the dose was increased once a week in the following fashion: 0.02 mg twice daily, 0.03 mg twice daily, 0.04 mg twice daily, 0.06 mg twice daily, 0.08 mg, 0.1 mg twice daily, 0.2 mg twice daily and 0.3 mg twice daily. The dose was optionally escalated to a possible maximum total daily dose of 0.6 mg (0.3 mg twice daily), pending tolerability.

[2] = Release (dissolution) profile of capsules, USP Apparatus 2 (paddle) at 50 rpm, 500 mL aqueous sodium phosphate 0.05 M, pH 6.8; type: physicochemical; settings: for Release rate (percentage of Compound 1 released): Table 3b, capsule 0.04 mg Compound 1, Poloxamer 188:food grade GMS 50:50
Source text: USP Apparatus 2 (Paddle Apparatus) is described, for example, in the United States Pharmacopeial Convention, Feb. 1, 2012, Chapter <711> (“Dissolution”), incorporated by reference herein in its entirety. See http://www.usp.org/sites/default/files/usp_pdf/EN/USPNF/revisions/m99470-gc_711.pdf. The assembly from Apparatus 1 is used, except that a paddle formed from a blade and a shaft is used as the stirring element. The shaft is positioned so that its axis is not more than 2 mm from the vertical axis of the vessel at any point and rotates smoothly without significant wobble that could affect the results. The vertical center line of the blade passes through the axis of the shaft so that the bottom of the blade is flush with the bottom of the shaft. A distance of 25±2 mm between the bottom of the blade and the inside bottom of the vessel is maintained during the test. The metallic or suitably inert, rigid blade and shaft comprise a single entity. A suitable two-part detachable design may be used provided the assembly remains firmly engaged during the test. The paddle blade and shaft may be coated with a suitable coating so as to make them inert. The dosage unit is allowed to sink to the bottom of the vessel before rotation of the blade is started. A small, loose piece of nonreactive material, such as not more than a few turns of wire helix, may be attached to dosage units that would otherwise float. Other validated sinker devices may be used.
Unless otherwise specified, the release profiles for capsules were measured using USP Apparatus 2 (paddle).
All release profiles disclosed in Tables 3c-3p were measured with USP Apparatus 2 (paddle) at 50 rpm in 500 mL of aqueous sodium phosphate at a concentration of 0.05 M (pH=6.8). The values in a given table relate to capsules obtained from the same batch. Values shown represent mean values over a number of dissolution tests (“n” in each table) in each case.

change of release rate after storage ([2]; 0.04 mg Compound 1 in Gelucire 50/13, storage at 40° C. and 75% RH for two weeks (FIG. 5)): rapid increase in release rate
Release rate (percentage of Compound 1 released) ([2]; 1 wk storage (40° C.), 30 min): 11.1%
Release rate (percentage of Compound 1 released) ([2]; 1 wk storage (40° C.), 60 min): 22.6%
Release rate (percentage of Compound 1 released) ([2]; 1 wk storage (40° C.), 120 min): 40.1%
Release rate (percentage of Compound 1 released) ([2]; 1 wk storage (40° C.), 180 min): 59.7%
Release rate (percentage of Compound 1 released) ([2]; 1 wk storage (40° C.), 240 min): 71.8%
Release rate (percentage of Compound 1 released) ([2]; 1 wk storage (40° C.), 360 min): 88.4%
Release rate (percentage of Compound 1 released) ([2]; 1 wk storage (40° C.), 480 min): 92.2%
Release rate (percentage of Compound 1 released) ([2]; 1 wk storage (40° C.), 600 min): 96.7%
Release rate (percentage of Compound 1 released) ([2]; 1 wk storage (40° C.), 720 min): 95.3%
Release rate (percentage of Compound 1 released) ([2]; 1 wk storage (40° C.), 735 min): 96.1%
Release rate (percentage of Compound 1 released) ([2]; 2 wks storage (40° C.), 30 min): 10.8%
Release rate (percentage of Compound 1 released) ([2]; 2 wks storage (40° C.), 60 min): 18.3%
Release rate (percentage of Compound 1 released) ([2]; 2 wks storage (40° C.), 120 min): 36.8%
Release rate (percentage of Compound 1 released) ([2]; 2 wks storage (40° C.), 180 min): 52.9%
Release rate (percentage of Compound 1 released) ([2]; 2 wks storage (40° C.), 240 min): 67.4%
Release rate (percentage of Compound 1 released) ([2]; 2 wks storage (40° C.), 360 min): 83.3%
Release rate (percentage of Compound 1 released) ([2]; 2 wks storage (40° C.), 480 min): 90.3%
Release rate (percentage of Compound 1 released) ([2]; 2 wks storage (40° C.), 600 min): 93.8%
Release rate (percentage of Compound 1 released) ([2]; 2 wks storage (40° C.), 720 min): 93.7%
Release rate (percentage of Compound 1 released) ([2]; 2 wks storage (40° C.), 735 min): 94.3%
Release rate (percentage of Compound 1 released) ([2]; 4 wks storage (40° C.), 30 min): 7.3%
Release rate (percentage of Compound 1 released) ([2]; 4 wks storage (40° C.), 60 min): 17.7%
Release rate (percentage of Compound 1 released) ([2]; 4 wks storage (40° C.), 120 min): 37.4%
Release rate (percentage of Compound 1 released) ([2]; 4 wks storage (40° C.), 180 min): 54.6%
Release rate (percentage of Compound 1 released) ([2]; 4 wks storage (40° C.), 240 min): 70.3%
Release rate (percentage of Compound 1 released) ([2]; 4 wks storage (40° C.), 360 min): 87.5%
SMILES: O=C(O)COC[C@H]1CC[C@H](COC(=O)N(c2ccccc2)c2ccc(Cl)cc2)CC1 [Compound 1, 2-(((1r,4r)-4-(((4-chlorophenyl)(phenyl)carbamoyloxy)methyl)cyclohexyl)methoxy)acetic acid]
Adverse events ([1]; 22-week study): consistent with other prostacyclin treatments
6-minute walk distance (6MWD) ([1]; after 22 weeks of treatment): numerical improvement
change from baseline in pulmonary vascular resistance (PVR) compared to placebo ([1]; after 22 weeks of treatment, capsule twice daily, titrated up to 0.3 mg twice daily): statistically significant change from baseline
mean pre-dose and 4-hours post-dose plasma levels ([1]; immediate-release capsule twice daily, titrated, patients): appear similar to those previously observed in healthy human subjects
correlation of 4 hour post-dose plasma concentrations with percent change from baseline in PVR and 6MWD ([1]; in vivo): strong and positive correlation

— US12642771B2, “Compositions comprising PGI2-receptor agonists and processes for the preparation thereof” (Arena Pharmaceuticals, Inc., priority 2017, dated 2026)
